The EC50 is the concentration that produces a half-maximal response. A higher EC50 goes with a less potent agent.

Numbered stars: 1 amine (or outer) side, 2 acyl side, 3 side chain; on linkers, the order of the positions; unused ones are H or OH. Bridge positions count the residues as written; N and C are the ends. Square brackets hold non-standard residues; d marks the D form. Peptide text beside a SMILES is read from it. X1 = O=S(=O)(F)Oc1cc(C[*:1])cc(C[*:2])c1; X2 = Oc1cc(C[*:1])cc(C[*:2])c1; Pra = C#CC[C@H](N)C(=O)O

Experiment [1] relates to interaction between Omicron BA2 spike and ACE2. In kind it is binding, SARS-CoV-2.
In the next experiment the target is BSA (Bos taurus, UniProt P02769). The class given is binding. As to conditions: highest concentration tested.
BSA, sequence (P02769 25-607): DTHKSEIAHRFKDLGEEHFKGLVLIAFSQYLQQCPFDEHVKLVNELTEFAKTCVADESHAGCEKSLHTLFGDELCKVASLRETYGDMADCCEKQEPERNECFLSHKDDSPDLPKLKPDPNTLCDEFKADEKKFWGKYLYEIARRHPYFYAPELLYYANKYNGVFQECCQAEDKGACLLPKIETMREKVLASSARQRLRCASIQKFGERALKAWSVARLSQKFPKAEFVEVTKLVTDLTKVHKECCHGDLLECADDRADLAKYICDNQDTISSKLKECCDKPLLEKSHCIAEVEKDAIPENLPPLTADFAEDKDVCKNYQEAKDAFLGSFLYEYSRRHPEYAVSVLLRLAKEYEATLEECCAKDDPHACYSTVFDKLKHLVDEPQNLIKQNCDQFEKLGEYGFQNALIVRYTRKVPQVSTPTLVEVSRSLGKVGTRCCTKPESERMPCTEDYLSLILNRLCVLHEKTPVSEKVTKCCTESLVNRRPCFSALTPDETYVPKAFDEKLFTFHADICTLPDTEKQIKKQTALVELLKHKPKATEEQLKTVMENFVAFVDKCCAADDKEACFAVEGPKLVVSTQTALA
For the next experiment, the system named is SARS-CoV-2 omicron BA.2. The class given is cell-based.

`C#CC[C@H](N)C(=O)N[C@@H](CCC(N)=O)C(=O)N[C@H]1CSCc2cc(cc(OS(=O)(=O)F)c2)CSC[C@@H](C(=O)NCC(N)=O)NC(=O)[C@H](CC(C)C)NC(=O)[C@H](C(C)C)NC(=O)[C@H](Cc2ccc(O)cc2)NC(=O)[C@H](CC(C)C)NC(=O)[C@H](CC(=O)O)NC(=O)[C@H](CCC(N)=O)NC(=O)[C@H](C(C)C)NC1=O` [CP_SW3A] (H-[Pra]QCVQDLYVLCG-NH2; linker 3-11 via X1): the “inhibition activity in MSD assay” value in experiment [1] is listed as “strong activity”. Besides, the “labeling of BSA” value at BSA is “only faint labeling”.
On to `C#CC[C@H](N)C(=O)N[C@@H](CCC(N)=O)C(=O)N[C@H]1CSSC[C@@H](C(=O)NCC(N)=O)NC(=O)[C@H](CC(C)C)NC(=O)[C@H](C(C)C)NC(=O)[C@H](Cc2ccc(O)cc2)NC(=O)[C@H](CC(C)C)NC(=O)[C@H](CC(=O)O)NC(=O)[C@H](CCC(N)=O)NC(=O)[C@H](C(C)C)NC1=O` [CP_SW3A_DS] (H-[Pra]QCVQDLYVLCG-NH2; disulfide 3-11), for which the “change of inhibitory potency after 10-fold dilution” value in the experiment on SARS-CoV-2 omicron BA.2 was “dramatic loss of activity after dilution”.
`C#CC[C@H](N)C(=O)N[C@@H](CCC(N)=O)C(=O)N[C@H]1CSCc2cc(O)cc(c2)CSC[C@@H](C(=O)NCC(N)=O)NC(=O)[C@H](CC(C)C)NC(=O)[C@H](C(C)C)NC(=O)[C@H](Cc2ccc(O)cc2)NC(=O)[C@H](CC(C)C)NC(=O)[C@H](CC(=O)O)NC(=O)[C@H](CCC(N)=O)NC(=O)[C@H](C(C)C)NC1=O` [CP_SW3A_Bz] (H-[Pra]QCVQDLYVLCG-NH2; linker 3-11 via X2): the “antiviral activity” value in the experiment on SARS-CoV-2 Omicron BA2, with SARS-CoV-2 Omicron BA5 and with SARS-CoV-2 Omicron BA1 was “only weak background activity” each time.
Molecule “Sotrovimab: monoclonal antibody targeting the spike protein of SARS-CoV-2, positive control [reference compound]” registered an EC50 with SARS-CoV-2 Omicron BA5 of 7 µM. This counts as single-digit micromolar.
With `C#CC[C@H](N)C(=O)N[C@@H](CCC(N)=O)C(=O)N[C@H]1CSCc2cc(cc(OS(=O)(=O)F)c2)CSC[C@@H](C(=O)NCC(N)=O)NC(=O)[C@H](C(C)C)NC(=O)[C@H](CCC(N)=O)NC(=O)[C@H](CC(=O)O)NC(=O)[C@H](CC(C)C)NC(=O)[C@H](Cc2ccc(O)cc2)NC(=O)[C@H](C(C)C)NC(=O)[C@H](CC(C)C)NC1=O` [CP_SW3A_S2] (H-[Pra]QCLVYLDQVCG-NH2; linker 3-11 via X1), the “antiviral activity” value in the experiment with SARS-CoV-2 Omicron BA2, in the experiment with SARS-CoV-2 Omicron BA5 and in the experiment on SARS-CoV-2 Omicron BA1 was “only weak background activity” in each case. In experiment [1], the “inhibition activity in MSD assay” value is on record as “loss of inhibition activities”.
`C#CC[C@H](NC(=O)[C@H](CCC(N)=O)NC(=O)[C@@H]1CSCc2cc(cc(OS(=O)(=O)F)c2)CSC[C@H](NC(=O)CN)C(=O)N[C@@H](CC(C)C)C(=O)N[C@@H](C(C)C)C(=O)N[C@@H](Cc2ccc(O)cc2)C(=O)N[C@@H](CC(C)C)C(=O)N[C@@H](CC(=O)O)C(=O)N[C@@H](CCC(N)=O)C(=O)N[C@@H](C(C)C)C(=O)N1)C(N)=O` [CP_SW3A_S1] (H-GCLVYLDQVCQ[Pra]-NH2; linker 2-10 via X1): the “antiviral activity” value with SARS-CoV-2 Omicron BA2, in the experiment on SARS-CoV-2 Omicron BA5 and in the experiment with SARS-CoV-2 Omicron BA1 was “only weak background activity” throughout. For the same molecule, in experiment [1], the “inhibition activity in MSD assay” value was “loss of inhibition activities”.

These data come from PMC11580984 (bioRxiv, 2024).
